Laboratory results reported in US20230085307A1, “PYRIDAZINONE COMPOUND AND HERBICIDE” (NISSAN CHEMICAL CORPORATION, priority 2019, published 2023).

What was measured:
late watergrass = assay: Test Example 1: herbicidal activity, application before weed generation under submerged conditions (Table 16, symbol A); type: in vivo, late watergrass (Echinochloa oryzicola); details: 320 g/ha applied herbicide
Outline: (§1)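 Emulsion formulation, water-diluted to set dose, was put onto the flooded surface (4 cm depth, alluvial soil) the same day weeds were sown and 2.5-leaf rice transplanted. After 3 weeks at 25-30 °C under glass, each species was rated 0 (≤5% kill) to 5 (≥90% kill).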

Japanese bulrush = assay: Test Example 1: herbicidal activity, application before weed generation under submerged conditions (Table 16, symbol B); type: in vivo, Japanese bulrush (Schoenoplectus juncoides); details: 320 g/ha applied herbicide
Outline: as §1

oval-leafed pondweed = assay: Test Example 1: herbicidal activity, application before weed generation under submerged conditions (Table 16, symbol C); type: in vivo, oval-leafed pondweed (Monochoria vaginalis); details: 320 g/ha applied herbicide
Outline: as §1

barnyard grass [1] = assay: Test Example 3: herbicidal effect by foliage application, Wagner pot (Table 18, symbol H); type: in vivo, barnyard grass (Echinochloa crus-galli); details: amount of applied herbicide 320 g/ha
Outline: (§2)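 Plants were sown in alluvial soil held under 0.1–0.5 cm standing water and grown 14 days in a greenhouse at 25–30 °C. An emulsifiable formulation, water-diluted to the set dose, was then sprayed onto the foliage, and effects were scored three weeks later using previously defined criteria.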

Chinese sprangletop = assay: Test Example 3: herbicidal effect by foliage application, Wagner pot (Table 18, symbol D); type: in vivo, chinese sprangletop (Leptochloa chinensis); details: amount of applied herbicide 320 g/ha
Outline: as §2

rice flat sedge = assay: Test Example 3: herbicidal effect by foliage application, Wagner pot (Table 18, symbol E); type: in vivo, rice flat sedge (Cyperus iria); details: amount of applied herbicide 320 g/ha
Outline: as §2

southern crabgrass [2] = assay: Test Example 4: herbicidal effect by soil treatment (Table 19, symbol F); type: in vivo, southern crabgrass (Digitaria ciliaris); details: amount of applied herbicide 320 g/ha
Outline: (§3)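 Pre-emergence style soil spray: seeds under ~1.5 cm sterilized diluvial soil received a uniform coat of emulsion diluted to the predetermined herbicide amount. Greenhouse 25–30° C; readout at week three on previously defined criteria.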

green foxtail [3] = assay: Test Example 4: herbicidal effect by soil treatment (Table 19, symbol G); type: in vivo, green foxtail (Setaria viridis); details: amount of applied herbicide 320 g/ha
Outline: as §3

barnyard grass [4] = assay: Test Example 4: herbicidal effect by soil treatment (Table 19, symbol H); type: in vivo, barnyard grass (Echinochloa crus-galli); details: amount of applied herbicide 320 g/ha
Outline: as §3

wild oat [5] = assay: Test Example 4: herbicidal effect by soil treatment (Table 19, symbol I); type: in vivo, wild oat (Avena fatua); details: amount of applied herbicide 320 g/ha
Outline: as §3

blackgrass [6] = assay: Test Example 4: herbicidal effect by soil treatment (Table 19, symbol J); type: in vivo, blackgrass (Alopecurus myosuroides); details: amount of applied herbicide 320 g/ha
Outline: as §3

Italian ryegrass [7] = assay: Test Example 4: herbicidal effect by soil treatment (Table 19, symbol K); type: in vivo, Italian ryegrass (Lolium multiflorum); details: amount of applied herbicide 320 g/ha
Outline: as §3

windgrass [8] = assay: Test Example 4: herbicidal effect by soil treatment (Table 19, symbol L); type: in vivo, windgrass (Apera spica-venti); details: amount of applied herbicide 320 g/ha
Outline: as §3

velvetleaf [9] = assay: Test Example 4: herbicidal effect by soil treatment (Table 19, symbol M); type: in vivo, velvetleaf (Abutilon theophrasti); details: amount of applied herbicide 320 g/ha
Outline: as §3

redroot pigweed [10] = assay: Test Example 4: herbicidal effect by soil treatment (Table 19, symbol N); type: in vivo, redroot pigweed (Amaranthus retroflexus); details: amount of applied herbicide 320 g/ha
Outline: as §3

lambsquarters [11] = assay: Test Example 4: herbicidal effect by soil treatment (Table 19, symbol O); type: in vivo, lambsquarters (Chenopodium album); details: amount of applied herbicide 320 g/ha
Outline: as §3

chickweed [12] = assay: Test Example 4: herbicidal effect by soil treatment (Table 19, symbol P); type: in vivo, common chickweed (Stellaria media); details: amount of applied herbicide 320 g/ha
Outline: as §3

persian speedwell [13] = assay: Test Example 4: herbicidal effect by soil treatment (Table 19, symbol R); type: in vivo, Persian speedwell (Veronica persica); details: amount of applied herbicide 320 g/ha
Outline: as §3

southern crabgrass [14] = assay: Test Example 5: herbicidal effect by foliage application, plastic box (Table 20, symbol F); type: in vivo, southern crabgrass (Digitaria ciliaris); details: foliage application, evaluated three weeks after application
Outline: (§4)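 Plants were sown into sterilized diluvial soil under about 1.5 cm cover and kept in a greenhouse at 25° C. to 30° C. Fourteen days on, foliage received an even spray of the diluted emulsion. Herbicidal or crop effect was judged three weeks afterwards.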

green foxtail [15] = assay: Test Example 5: herbicidal effect by foliage application, plastic box (Table 20, symbol G); type: in vivo, green foxtail (Setaria viridis); details: foliage application, evaluated three weeks after application
Outline: as §4

barnyard grass [16] = assay: Test Example 5: herbicidal effect by foliage application, plastic box (Table 20, symbol H); type: in vivo, barnyard grass (Echinochloa crus-galli); details: foliage application, evaluated three weeks after application
Outline: as §4

wild oat [17] = assay: Test Example 5: herbicidal effect by foliage application, plastic box (Table 20, symbol I); type: in vivo, wild oat (Avena fatua); details: foliage application, evaluated three weeks after application
Outline: as §4

blackgrass [18] = assay: Test Example 5: herbicidal effect by foliage application, plastic box (Table 20, symbol J); type: in vivo, blackgrass (Alopecurus myosuroides); details: foliage application, evaluated three weeks after application
Outline: as §4

Italian ryegrass [19] = assay: Test Example 5: herbicidal effect by foliage application, plastic box (Table 20, symbol K); type: in vivo, Italian ryegrass (Lolium multiflorum); details: foliage application, evaluated three weeks after application
Outline: as §4

windgrass [20] = assay: Test Example 5: herbicidal effect by foliage application, plastic box (Table 20, symbol L); type: in vivo, windgrass (Apera spica-venti); details: foliage application, evaluated three weeks after application
Outline: as §4

velvetleaf [21] = assay: Test Example 5: herbicidal effect by foliage application, plastic box (Table 20, symbol M); type: in vivo, velvetleaf (Abutilon theophrasti); details: foliage application, evaluated three weeks after application
Outline: as §4

redroot pigweed [22] = assay: Test Example 5: herbicidal effect by foliage application, plastic box (Table 20, symbol N); type: in vivo, redroot pigweed (Amaranthus retroflexus); details: foliage application, evaluated three weeks after application
Outline: as §4

lambsquarters [23] = assay: Test Example 5: herbicidal effect by foliage application, plastic box (Table 20, symbol O); type: in vivo, lambsquarters (Chenopodium album); details: foliage application, evaluated three weeks after application
Outline: as §4

chickweed [24] = assay: Test Example 5: herbicidal effect by foliage application, plastic box (Table 20, symbol P); type: in vivo, common chickweed (Stellaria media); details: foliage application, evaluated three weeks after application
Outline: as §4

persian speedwell [25] = assay: Test Example 5: herbicidal effect by foliage application, plastic box (Table 20, symbol R); type: in vivo, Persian speedwell (Veronica persica); details: foliage application, evaluated three weeks after application
Outline: as §4

SMILES | Herbicidal effect on A: late watergrass (grade 0-5) (late watergrass) | Herbicidal effect on B: Japanese bulrush (grade 0-5) (Japanese bulrush) | Herbicidal effect on C: oval-leafed pondweed (grade 0-5) (oval-leafed pondweed) | herbicidal effect on H: barnyard grass (barnyard grass [1]) | herbicidal effect on D: Chinese sprangletop (Chinese sprangletop) | herbicidal effect on E: rice flat sedge (rice flat sedge) | herbicidal effect on F: southern crabgrass (southern crabgrass [2]) | herbicidal effect on G: green foxtail (green foxtail [3]) | herbicidal effect on H: barnyard grass (barnyard grass [4]) | herbicidal effect on I: wild oat (wild oat [5]) | herbicidal effect on J: blackgrass (blackgrass [6]) | herbicidal effect on K: Italian ryegrass (Italian ryegrass [7]) | herbicidal effect on L: windgrass (windgrass [8]) | herbicidal effect on M: velvetleaf (velvetleaf [9]) | herbicidal effect on N: redroot pigweed (redroot pigweed [10]) | herbicidal effect on O: lambsquarters (lambsquarters [11]) | herbicidal effect on P: chickweed (chickweed [12]) | herbicidal effect on R: persian speedwell (persian speedwell [13]) | further results
CCCSc1cccc(-c2sc3ccc(F)cc3c2-c2c(O)c(C)nn(C)c2=O)c1 [2-246] | 2 (Herbicidal rate of 20% or more and less than 40%) | 0 (Herbicidal rate of 5% or less (almost no effect)) | 0 (Herbicidal rate of 5% or less (almost no effect)) | 3 (Herbicidal rate of 40% or more and less than 70%) | 0 (Herbicidal rate of 5% or less (almost no effect)) | 3 (Herbicidal rate of 40% or more and less than 70%) | 0 (Herbicidal rate of 5% or less (almost no effect)) | 0 (Herbicidal rate of 5% or less (almost no effect)) | 0 (Herbicidal rate of 5% or less (almost no effect)) | 0 (Herbicidal rate of 5% or less (almost no effect)) | 0 (Herbicidal rate of 5% or less (almost no effect)) | 0 (Herbicidal rate of 5% or less (almost no effect)) | 0 (Herbicidal rate of 5% or less (almost no effect)) | 0 (Herbicidal rate of 5% or less (almost no effect)) | 0 (Herbicidal rate of 5% or less (almost no effect)) | 0 (Herbicidal rate of 5% or less (almost no effect)) | 3 (Herbicidal rate of 40% or more and less than 70%) | 5 (Herbicidal rate of 90% or more (almost completely withered)) | herbicidal effect on F: southern crabgrass (criteria 0-5) (southern crabgrass [14]; 320 g/ha): 0 (Herbicidal rate of 5% or less (almost no effect)); herbicidal effect on G: green foxtail (criteria 0-5) (green foxtail [15]; 320 g/ha): 0 (Herbicidal rate of 5% or less (almost no effect)); herbicidal effect on H: barnyard grass (criteria 0-5) (barnyard grass [16]; 320 g/ha): 0 (Herbicidal rate of 5% or less (almost no effect)); herbicidal effect on I: wild oat (criteria 0-5) (wild oat [17]; 320 g/ha): 4 (Herbicidal rate of 70% or more and less than 90%); herbicidal effect on J: blackgrass (criteria 0-5) (blackgrass [18]; 320 g/ha): 1 (Herbicidal rate of 5% or more and less than 20%); herbicidal effect on K: Italian ryegrass (criteria 0-5) (Italian ryegrass [19]; 320 g/ha): 2 (Herbicidal rate of 20% or more and less than 40%); herbicidal effect on L: windgrass (criteria 0-5) (windgrass [20]; 320 g/ha): 3 (Herbicidal rate of 40% or more and less than 70%); herbicidal effect on M: velvetleaf (criteria 0-5) (velvetleaf [21]; 320 g/ha): 3 (Herbicidal rate of 40% or more and less than 70%); herbicidal effect on N: redroot pigweed (criteria 0-5) (redroot pigweed [22]; 320 g/ha): 3 (Herbicidal rate of 40% or more and less than 70%); herbicidal effect on O: lambsquarters (criteria 0-5) (lambsquarters [23]; 320 g/ha): 0 (Herbicidal rate of 5% or less (almost no effect)); herbicidal effect on P: chickweed (criteria 0-5) (chickweed [24]; 320 g/ha): 5 (Herbicidal rate of 90% or more (almost completely withered)); herbicidal effect on R: persian speedwell (criteria 0-5) (persian speedwell [25]; 320 g/ha): 5 (Herbicidal rate of 90% or more (almost completely withered))
CC(=O)COc1cccc(-c2sc3ccc(F)cc3c2-c2c(O)c(C)nn(C)c2=O)c1 [2-275] | 3 (Herbicidal rate of 40% or more and less than 70%) | 3 (Herbicidal rate of 40% or more and less than 70%) | 3 (Herbicidal rate of 40% or more and less than 70%) | 3 (Herbicidal rate of 40% or more and less than 70%) | 0 (Herbicidal rate of 5% or less (almost no effect)) | 0 (Herbicidal rate of 5% or less (almost no effect)) | 5 (Herbicidal rate of 90% or more (almost completely withered)) | 4 (Herbicidal rate of 70% or more and less than 90%) | 3 (Herbicidal rate of 40% or more and less than 70%) | 0 (Herbicidal rate of 5% or less (almost no effect)) | 0 (Herbicidal rate of 5% or less (almost no effect)) | 0 (Herbicidal rate of 5% or less (almost no effect)) | 0 (Herbicidal rate of 5% or less (almost no effect)) | 1 (Herbicidal rate of 5% or more and less than 20%) | 4 (Herbicidal rate of 70% or more and less than 90%) | 2 (Herbicidal rate of 20% or more and less than 40%) | 0 (Herbicidal rate of 5% or less (almost no effect)) | 3 (Herbicidal rate of 40% or more and less than 70%) | F: southern crabgrass, herbicidal effect (criteria 0-5) (southern crabgrass [14]; AAH 320 g/ha): 5 (Herbicidal rate of 90% or more (almost completely withered)); G: green foxtail, herbicidal effect (criteria 0-5) (green foxtail [15]; AAH 320 g/ha): 4 (Herbicidal rate of 70% or more and less than 90%); H: barnyard grass, herbicidal effect (criteria 0-5) (barnyard grass [16]; AAH 320 g/ha): 3 (Herbicidal rate of 40% or more and less than 70%); I: wild oat, herbicidal effect (criteria 0-5) (wild oat [17]; AAH 320 g/ha): 0 (Herbicidal rate of 5% or less (almost no effect)); J: blackgrass, herbicidal effect (criteria 0-5) (blackgrass [18]; AAH 320 g/ha): 0 (Herbicidal rate of 5% or less (almost no effect)); K: Italian ryegrass, herbicidal effect (criteria 0-5) (Italian ryegrass [19]; AAH 320 g/ha): 0 (Herbicidal rate of 5% or less (almost no effect)); L: windgrass, herbicidal effect (criteria 0-5) (windgrass [20]; AAH 320 g/ha): 0 (Herbicidal rate of 5% or less (almost no effect)); M: velvetleaf, herbicidal effect (criteria 0-5) (velvetleaf [21]; AAH 320 g/ha): 3 (Herbicidal rate of 40% or more and less than 70%); N: redroot pigweed, herbicidal effect (criteria 0-5) (redroot pigweed [22]; AAH 320 g/ha): 4 (Herbicidal rate of 70% or more and less than 90%); O: lambsquarters, herbicidal effect (criteria 0-5) (lambsquarters [23]; AAH 320 g/ha): 2 (Herbicidal rate of 20% or more and less than 40%); P: chickweed, herbicidal effect (criteria 0-5) (chickweed [24]; AAH 320 g/ha): 5 (Herbicidal rate of 90% or more (almost completely withered)); R: persian speedwell, herbicidal effect (criteria 0-5) (persian speedwell [25]; AAH 320 g/ha): 5 (Herbicidal rate of 90% or more (almost completely withered))
